Experimental data reported in EP4321514B1, “COMPOUND HAVING ALK INHIBITORY ACTIVITY, PREPARATION METHOD THEREFOR AND USE THEREOF” (CGeneTech (Suzhou, China) Co., Ltd., priority 2021, dated 2022).

Legend:
ALK kinase = target: T1, ALK kinase (Homo sapiens, UniProt Q9UM73); assay: ALK kinase inhibition test; type: biochemical; details: 0.4 ng/well ALK kinase, 5 µM ATP, fluorescence 665 nm/615 nm
T1 construct: purchased Thermo Scientific
Description: The inhibitory activity of the compound in the present application on ALK kinase will be determined through in vitro tests, which can be represented by IC50 value.
4 µL of the diluted solution of the test compound and 2 µL of 0.4 ng/well ALK kinase solution (Thermo Scientific) were added into reaction wells in turn, incubated for 10 min at room temperature, then 4 µL of 0.7 µM biotin-labeled tyrosine kinase substrate and 5 µM ATP solution were added to start the kinase reaction.
Software Graphpad Prism 6 was used to fit an IC50 curve and calculate an IC50 value.

[1] = tested on: human anaplastic large cell lymphoma cell Karpas 299; assay: ALK gene fusion cell proliferation inhibition test (CCK-8); type: cell-based; details: 72 hours incubation, CCK-8, absorbance at 450 nm
Description: The 96-well culture plate was placed in a 5 % carbon dioxide incubator at 37 °C to be cultured overnight. A test compound was formulated into a 10 mM storage solution with DMSO, and the 10mM storage solution was gradually diluted with DMSO at a dilution ration of 1:4 to obtain 9 concentration gradients of solutions of the test compound. The test compound was diluted with culture medium to 5 times the set final concentration of corresponding action, and the diluted solution of the test compound was added at 25 µL/well to corresponding cell wells according to the set compound layout, and then incubated in a 5 % carbon dioxide incubator at 37 °C for 72 hours. After 72 hours, 10 µL of CCK-8 was added into a cell culture medium, and the culture solution was sucked from adherent cells, then a freshly prepared CCK-8 detection solution was added and the cells were incubated in a 37 °C incubator for 1-4 hours. The absorbance at 450 nm wavelength on the SpectraMax i3X Microplate Reader was measured after gently shaking, with the absorbance at 650 nm as a reference.

T1 sequence (Q9UM73 19-1620): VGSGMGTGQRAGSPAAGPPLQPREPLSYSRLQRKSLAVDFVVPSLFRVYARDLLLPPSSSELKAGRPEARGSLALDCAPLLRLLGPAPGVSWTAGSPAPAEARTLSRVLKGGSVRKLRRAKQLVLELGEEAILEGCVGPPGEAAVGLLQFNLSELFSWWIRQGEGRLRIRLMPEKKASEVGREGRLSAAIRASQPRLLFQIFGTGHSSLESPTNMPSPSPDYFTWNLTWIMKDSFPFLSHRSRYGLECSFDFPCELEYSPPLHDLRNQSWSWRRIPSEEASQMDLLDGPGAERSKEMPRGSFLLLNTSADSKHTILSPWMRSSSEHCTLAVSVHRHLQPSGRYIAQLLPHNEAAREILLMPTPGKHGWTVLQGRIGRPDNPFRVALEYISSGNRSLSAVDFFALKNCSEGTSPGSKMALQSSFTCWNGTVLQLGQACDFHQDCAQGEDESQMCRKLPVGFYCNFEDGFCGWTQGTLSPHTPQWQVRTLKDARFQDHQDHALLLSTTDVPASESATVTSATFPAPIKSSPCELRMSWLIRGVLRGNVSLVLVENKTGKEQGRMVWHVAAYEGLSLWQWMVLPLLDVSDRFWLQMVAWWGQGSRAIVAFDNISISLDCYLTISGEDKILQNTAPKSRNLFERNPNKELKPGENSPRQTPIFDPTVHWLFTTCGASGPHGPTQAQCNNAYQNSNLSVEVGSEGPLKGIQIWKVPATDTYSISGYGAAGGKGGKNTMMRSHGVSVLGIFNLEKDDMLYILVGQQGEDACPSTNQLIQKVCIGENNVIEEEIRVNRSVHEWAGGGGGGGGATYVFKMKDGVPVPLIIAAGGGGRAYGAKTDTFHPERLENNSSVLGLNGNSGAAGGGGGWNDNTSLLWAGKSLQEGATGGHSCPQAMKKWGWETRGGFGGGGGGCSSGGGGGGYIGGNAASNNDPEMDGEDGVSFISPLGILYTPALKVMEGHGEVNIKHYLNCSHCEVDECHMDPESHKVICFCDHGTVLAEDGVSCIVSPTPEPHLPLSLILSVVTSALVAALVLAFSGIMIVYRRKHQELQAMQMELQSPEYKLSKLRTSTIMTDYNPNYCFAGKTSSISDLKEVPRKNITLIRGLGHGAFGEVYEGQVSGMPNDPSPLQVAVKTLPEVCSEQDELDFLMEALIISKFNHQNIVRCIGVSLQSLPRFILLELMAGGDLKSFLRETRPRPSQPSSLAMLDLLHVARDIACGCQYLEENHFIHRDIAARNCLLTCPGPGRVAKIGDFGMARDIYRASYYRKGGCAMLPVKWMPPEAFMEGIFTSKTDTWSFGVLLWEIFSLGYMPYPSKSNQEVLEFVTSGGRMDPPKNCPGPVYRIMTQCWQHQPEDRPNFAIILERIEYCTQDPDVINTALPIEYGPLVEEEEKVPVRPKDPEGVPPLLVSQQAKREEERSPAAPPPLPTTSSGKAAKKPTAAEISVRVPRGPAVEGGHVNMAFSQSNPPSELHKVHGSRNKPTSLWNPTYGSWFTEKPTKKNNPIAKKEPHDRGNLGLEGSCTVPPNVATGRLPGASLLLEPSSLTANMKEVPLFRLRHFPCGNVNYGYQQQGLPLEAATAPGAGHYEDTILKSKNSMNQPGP

SMILES | IC50 (ALK kinase) | IC50 [1]
C#Cc1ccc2c3c([nH]c2c1)C(C)(C)c1cc(N2CCC(N4CCOCC4)CC2)c(CC)cc1C3=O [Example E1, 9-ethyl-3-ethynyl-6,6-dimethyl-8-(4-morpholinopiperidin-1-yl)-5,6-dihydro-11H-benzo[b]carbazol-11-one] | 5.09 nM | 7.34 nM
C#Cc1ccc2c3c([nH]c2c1)C(C)(C)c1cc(N2CCN(C)CC2)c(CC)cc1C3=O [Example E2, 9-ethyl-3-ethynyl-6,6-dimethyl-8-(4-methylpiperazin-1-yl)-5,6-dihydro-11H-benzo[b]carbazol-11-one] | 7.38 nM | 18.1 nM
C#Cc1ccc2c3c([nH]c2c1)C(C)(C)c1cc(N2CCN(C4CC4)CC2)c(CC)cc1C3=O [Example E3, 8-(4-cyclopropylpiperazin-1-yl)-9-ethyl-3-ethynyl-6,6-dimethyl-5,6-dihydro-11H-benzo[b]carbazol-11-one] | 37.8 nM | 144 nM
C#Cc1ccc2c3c([nH]c2c1)C(C)(C)c1cc(N2CCC(N4CCC4)CC2)c(CC)cc1C3=O [Example E4, 8-(4-(azetidin-1-yl)piperidin-1-yl)-9-ethyl-3-ethynyl-6,6-dimethyl-5,6-dihydro-11H-benzo[b]carbazol-11-one] | 6.35 nM | 32.6 nM
C#Cc1ccc2c3c([nH]c2c1)C(C)(C)c1cc(N2CCC(N4CCCC4)CC2)c(CC)cc1C3=O [Example E5, 9-ethyl-3-ethynyl-6,6-dimethyl-8-(4-(pyrrolidin-1-yl)piperidin-1-yl)-5,6-dihydro-11H-benzo[b]car bazol-11-one] | 13.8 nM | 24.9 nM
C#Cc1ccc2c3c([nH]c2c1)C(C)(C)c1cc(N2CCC(N(C)C)CC2)c(CC)cc1C3=O [Example E6, 8-(4-(dimethylamino)piperidin-1-yl)-9-ethyl-3-ethynyl-6,6-dimethyl-5,6-dihydro-11H-benzo[b]car bazol-11-one] | 21 nM | 107 nM
C#Cc1ccc2c3c([nH]c2c1)C(C)(C)c1cc(N2CCNCC2)c(CC)cc1C3=O [Example E7, 9-ethyl-3-ethynyl-6,6-dimethyl-8-(piperazin-1-yl)-5H-benzo[b]carbazol-11(6H)-one] | 7.41 nM | 40.3 nM
C#Cc1ccc2c3c([nH]c2c1)C(C)(C)c1cc(C2CCNCC2)c(CC)cc1C3=O [Example E8, 9-ethyl-3-ethynyl-6,6-dimethyl-8-(piperidin-4-yl)-5,6-dihydro-11H-benzo[b]carbazol-11-one] | 6.6 nM | 109 nM
C#Cc1ccc2c3c([nH]c2c1)C(C)(C)c1cc(C2CCN(C)CC2)c(CC)cc1C3=O [Example E9, 9-ethyl-3-ethynyl-6,6-dimethyl-8-(1-methylpiperidin-4-yl)-5,6-dihydro-11H-benzo[b]carbazol-11-one] | 8.11 nM | 54.2 nM
C#Cc1ccc2c3c([nH]c2c1)C(C)(C)c1cc(C2CCN(C4CC4)CC2)c(CC)cc1C3=O [Example E10, 8-(1-cyclopropylpiperidin-4-yl)-9-ethyl-3-ethynyl-6,6-dimethyl-5,6-dihydro-11H-benzo[b]carbazol-11-one] | 20.5 nM | 208 nM
C#Cc1ccc2c3c([nH]c2c1)C(C)(C)c1cc(N2CCC(N4CCN(C5CC5)CC4)CC2)c(CC)cc1C3=O [Example E11, 8-(4-(4-cyclopropylpiperazin-1-yl)piperidin-1-yl)-9-ethyl-3-ethynyl-6,6-dimethyl-5,6-dihydro-11 H-benzo[b]carbazol-11-one] | 59 nM | 186 nM
C#Cc1ccc2c3c([nH]c2c1)C(C)(C)c1cc(N2CCC(N4CCOCC4)CC2)c(C#N)cc1C3=O [Example E12, 3-ethynyl-6,6-dimethyl-8-(4-morpholinopiperidin-1-yl)-11-oxo-6,11-dihydro-5H-benzo[b]carbazole-9-carbonitrile] | 6.78 nM | 8.71 nM
C#Cc1ccc2c3c([nH]c2c1)C(C)(C)c1cc(N2CCN(C)CC2)c(C#N)cc1C3=O [Example E13, 3-ethynyl-6,6-dimethyl-8-(4-methylpiperazin-1-yl)-11-oxo-6,11-dihydro-5H-benzo[b]carbazole-9-carbonitrile] | 5.76 nM | 7.52 nM
C#Cc1ccc2c3c([nH]c2c1)C(C)(C)c1cc(N2CCC(N4CCCC4)CC2)c(C#N)cc1C3=O [Example E14, 3-ethynyl-6,6-dimethyl-11-oxo-8-(4-(pyrrolidin-1-yl)piperidin-1-yl)-6,11-dihydro-5H-benzo[b]car bazole-9-carbonitrile] | 6.51 nM | 11.4 nM
C#Cc1ccc2c3c([nH]c2c1)C(C)(C)c1cc(N2CCC(N(C)C)CC2)c(C#N)cc1C3=O [Example E15, 8-(4-(dimethylamino)piperidin-1-yl)-3-ethynyl-6,6-dimethyl-11-oxo-6,11-dihydro-5H-benzo[b]car bazole-9-carbonitrile] | 4.62 nM | 8.29 nM
C#Cc1ccc2c3c([nH]c2c1)C(C)(C)c1cc(N2CCC(N4CCN(C)CC4)CC2)c(C#N)cc1C3=O [Example E16, 3-ethynyl-6,6-dimethyl-8-(4-(4-methylpiperazin-1-yl)piperidin-1-yl)-11-oxo-6,11-dihydro-5H-ben zo[b]carbazole-9-carbonitrile] | 5.7 nM | 3.27 nM
C#Cc1ccc2c3c([nH]c2c1)C(C)(C)c1cc(N2CCN(C4CC4)CC2)c(C#N)cc1C3=O [Example E17, 8-(4-cyclopropylpiperazin-1-yl)-3-ethynyl-6,6-dimethyl-11-oxo-6,11-dihydro-5H-benzo[b]carbazole-9-carbonitrile] | 49 nM | 33.2 nM
C#Cc1ccc2c3c([nH]c2c1)C(C)(C)c1cc(N2CCC(N4CCN(C5CC5)CC4)CC2)c(C#N)cc1C3=O [Example E18, 8-(4-(4-cyclopropylpiperazin-1-yl)piperidin-1-yl)-3-ethynyl-6,6-dimethyl-11-oxo-6,11-dihydro-5 H-benzo[b]carbazole-9-carbonitrile] | 10.3 nM | 1.71 nM
C#Cc1ccc2c3c([nH]c2c1)C(C)(C)c1cc(N2CCN(C)CC2)c(Cl)cc1C3=O [Example E19, 9-chloro-3-ethynyl-6,6-dimethyl-8-(4-methylpiperazin-1-yl)-5,6-dihydro-11H-benzo[b]carbazol-1 1-one] | 3.73 nM | 11.7 nM
C#Cc1ccc2c3c([nH]c2c1)C(C)(C)c1cc(N2CCN(C4CC4)CC2)c(Cl)cc1C3=O [Example E20, 9-chloro-8-(4-cyclopropylpiperazin-1-yl)-3-ethynyl-6,6-dimethyl-5,6-dihydro-11H-benzo[b]carbazol-11-one] | 40.1 nM | 55.9 nM
C#Cc1ccc2c3c([nH]c2c1)C(C)(C)c1cc(N2CCC(N(C)C)CC2)c(Cl)cc1C3=O [Example E21, 9-chloro-8-(4-(dimethylamino)piperidin-1-yl)-3-ethynyl-6,6-dimethyl-5,6-dihydro-11H-benzo[b]c arbazol-11-one] | 12.7 nM | 10.4 nM
C#Cc1ccc2c3c([nH]c2c1)C(C)(C)c1cc(N2CCC(N4CCN(C)CC4)CC2)c(Cl)cc1C3=O [Example E22, 9-chloro-3-ethynyl-6,6-dimethyl-8-(4-(4-methylpiperazin-1-yl)piperidin-1-yl)-5,6-dihydro-11H-be nzo[b]carbazol-11-one] | 13.5 nM | 4.67 nM
C#Cc1ccc2c3c([nH]c2c1)C(C)(C)c1cc(N2CCC(N4CCOCC4)CC2)c(Cl)cc1C3=O [Example E23, 9-chloro-3-ethynyl-6,6-dimethyl-8-(4-morpholinopiperidin-1-yl)-5,6-dihydro-11H-benzo[b]carbazol-11-one] | 2.61 nM | 22.2 nM
C#Cc1ccc2c3c([nH]c2c1)C(C)(C)c1cc(N2CCNCC2)c(Cl)cc1C3=O [Example E24, 9-chloro-3-ethynyl-6,6-dimethyl-8-(piperazin-1-yl)-5,6-dihydro-11H-benzo[b]carbazol-11-one] | 3.29 nM | 18.2 nM
C#Cc1ccc2c3c([nH]c2c1)C(C)(C)c1cc(N2CCC(N4CCC4)CC2)c(Cl)cc1C3=O [Example E25, 8-(4-(azetidin-1-yl)piperidin-1-yl)-9-chloro-3-ethynyl-6,6-dimethyl-5,6-dihydro-11H-benzo[b]car bazol-11-one] | 49.9 nM | 53 nM
CCc1cc2c(cc1N1CCC(N3CCOCC3)CC1)C(C)(C)c1[nH]c3cc(C#CC4CC4)ccc3c1C2=O [Example E26, 3-(cyclopropylethynyl)-9-ethyl-6,6-dimethyl-8-(4-morpholinopiperidin-1-yl)-5,6-dihydro-11H-be nzo[b]carbazol-11-one] | 38.4 nM | 20.6 nM
CC#Cc1ccc2c3c([nH]c2c1)C(C)(C)c1cc(N2CCC(N4CCOCC4)CC2)c(CC)cc1C3=O [Example E27, 9-ethyl-6,6-dimethyl-8-(4-morpholinopiperidin-1-yl)-3-(prop-1-yn-1-yl)-5,6-dihydro-11H-benzo[b]carbazol-11-one] | 10.2 nM | 110 nM
